Results as given in patent US20220380331A1, “TREATMENT OF CONDITIONS OF THE NERVOUS SYSTEM” (priority 2019, published 2022).

Legend:
[1] = test system: perineuronal nets (PNNs) in the ventral horn; experiment: Chronic PNNi treatment, immunohistochemistry of PNNs in the ventral horn 12 weeks post-injury; format: in vivo, rat; conditions: T4-6 sections
Method: FIG. 15. Chronic PNNi treatment preferentially reduces expression of perineuronal nets (PNNs), labelled by key PNN components, in the ventral horn (VH). Rat spinal cord sections (T4-6) obtained at 12 weeks post-injury were stained and intensity was analysed in the VH. […] A transcardial perfusion (Gage et al., 2012) was then performed using sodium phosphate buffer (PB; 0.12 M sodium phosphate monobasic; 0.1 M NaOH; pH 7.4) followed by 4% paraformaldehyde (PFA; in PB; pH 7.4) for tissue fixation. The brain and spinal cord were dissected out, post-fixed in PFA (4%; 4° C.) overnight and cryoprotected in 30% sucrose solution (30% v/w sucrose in PB; 4° C.) until tissue saturation. The left brain hemisphere and appropriate spinal cord segments were excised and frozen in optimum temperature medium (OCT; Leica FSC 22 Frozen Section Media; Leica Biosystems) before storage at -80° C. until sectioning. […] Total number of neurones and the number of neurones surrounded by PNNs were quantified by two independent researchers, blinded to the study. Results were analysed with one-way ANOVA for statistical significance. […] Rat spinal cord sections (T4-6) obtained at 12 weeks post-injury were stained and intensity was analysed in the VH.

sensorimotor cortex (M1) = experiment: Intracortical microstimulation (ICMS) mapping of HL and FL cortical movement representations; format: in vivo, rat
Method: FIG. […]): Perineuronal net inhibitor (PNNi) induces reorganisation of the sensorimotor map (M1) in intact rats. Using intracortical microstimulation (ICMS), mapping of the HL and FL cortical movement representations were used to investigate the functional organisation of the M1 of intact/sham animals after long-term treatment with the prospective plasticity enhancer, […] was performed at stereotaxic coordinates within a right hemisphere craniotomy 5 mm rostral/caudal to bregma (B) (A) 11 weeks post mid-thoracic laminectomy (Sham) or for age-controlled intact rats. Individual ICMS maps were combined to give the representative heat map per group illustrating the percentage of animals for each stereotaxic coordinate where hindlimb (HL; B-D) or forelimb (FL; K-M) movements were able to be elicited. A baseline HL and FL cortical map was generated for Lister Hooded rats (B, K; dotted outlines in B-D, K-M) to compare the functional plasticity of groups with sham surgery (C, L) and with chronic PNNi administration (D, M). Measurements for HL analysis (F-G) are illustrated in E). H) Average area (mm^2) of the HL representation reduced with PNNi treatment. […] Measurements for FL analysis (P-S) are illustrated in O). After PNNi treatment, FL movements were elicited in areas that are not associated with FL or HL movements (see right of the baseline HL map; white dotted outline K-M). […]

[2] = Nagy et al., 2015; cited from earlier work
mice = conditions: 6.8-12.8 g/kg in mice continuously for 6 months

With `Cc1cc(=O)oc2cc(O)ccc12` [PNNi, 4-methylumbelliferone] the “number of PNNs labelled by ACAN and WFA in the ventral horn” value [1] was “partially decreases number of PNNs”, the “percentage of FL movements associated with areas previously eliciting HL movements” value (sensorimotor cortex (M1); SCI plus long-term PNNi, sham control 4.27±1.56%) was 23.9±8.01% and the “total area able to elicit HL movements” value (sensorimotor cortex (M1); sham animals, long-term treatment) was “reduced the total area able to elicit HL movements”. For the same compound, the “solubility in aqueous solution” value [2] was “near insoluble” and the “lethality and adverse signs” value (mice) was “did not show any lethality”.
